For 19 molecules, IC50 results are on record in patent publication US11814367B2, “Inhibitors of glycogen synthase 1 (GYS1) and methods of use thereof” (Maze Therapeutics, Inc., priority 2021, dated 2023).

In assay [1] the target is hGYS1 enzyme (recombinant hGYS1/GN1 protein) (Homo sapiens (Human), UniProt P13807). Description: GYS1 coupled enzyme assay (PK/LDH). The conditions noted are these: hGYS1/GN1 50 nM, UDP-Glucose 0.8 mM, G6P 1 mM; geometric mean of at least 2 runs. In kind it is biochemical.
For assay [2], the target named is hGYS2 enzyme (recombinant hGYS2/GN1 protein) (Homo sapiens (Human), UniProt P54840). Put plainly: GYS2 coupled enzyme assay (PK/LDH). The note with it: geometric mean of at least 2 assay runs on separate days, read-out: Avg_IC50. In kind it is biochemical. The essentials:
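Recombinant hGYS2/GN1 (200 nM) with 2 mM UDP-glucose, 0.2% rabbit liver glycogen, 2 mM glucose-6-phosphate; UDP coupled via PK/LDH (2 mM PEP, 0.6 mM NADH). Buffer 50 mM Tris pH 7.5, 2 mM MgCl2, 100 mM KCl, 2.5% DMSO. A340 slope over 10 min; IC50 from Hill fit of duplicates.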

Assay [3] relates to hGYS1 enzyme / glycogen synthesis in HeLa cells. Description: GYS1 cell based assay (glycogen synthesis, Glucose-glo). Details: species or system human. The note with it: Homo sapiens, HeLa, 24 h, 24 h incubation, 20 mM glucose, geometric mean of at least 2 runs. A digest of the protocol: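 HeLa cells starved 24 h in medium containing only 1× Glutamax were plated onto compound in medium with 20 mM glucose (1% DMSO final) for 24 h, 37 °C, 5% CO2. Acid lysates were Tris-quenched, glucoamylase-digested (pH 5.3, 1 h, 37 °C) and read by Glucose-glo luminescence. IC50 came from Hill fits, as geometric mean of ≥2 runs.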

Each structure is given as a SMILES string. pIC50: −log10 of the molar value.

hGYS2 enzyme (recombinant hGYS2/GN1 protein), sequence (P54840 whole entry): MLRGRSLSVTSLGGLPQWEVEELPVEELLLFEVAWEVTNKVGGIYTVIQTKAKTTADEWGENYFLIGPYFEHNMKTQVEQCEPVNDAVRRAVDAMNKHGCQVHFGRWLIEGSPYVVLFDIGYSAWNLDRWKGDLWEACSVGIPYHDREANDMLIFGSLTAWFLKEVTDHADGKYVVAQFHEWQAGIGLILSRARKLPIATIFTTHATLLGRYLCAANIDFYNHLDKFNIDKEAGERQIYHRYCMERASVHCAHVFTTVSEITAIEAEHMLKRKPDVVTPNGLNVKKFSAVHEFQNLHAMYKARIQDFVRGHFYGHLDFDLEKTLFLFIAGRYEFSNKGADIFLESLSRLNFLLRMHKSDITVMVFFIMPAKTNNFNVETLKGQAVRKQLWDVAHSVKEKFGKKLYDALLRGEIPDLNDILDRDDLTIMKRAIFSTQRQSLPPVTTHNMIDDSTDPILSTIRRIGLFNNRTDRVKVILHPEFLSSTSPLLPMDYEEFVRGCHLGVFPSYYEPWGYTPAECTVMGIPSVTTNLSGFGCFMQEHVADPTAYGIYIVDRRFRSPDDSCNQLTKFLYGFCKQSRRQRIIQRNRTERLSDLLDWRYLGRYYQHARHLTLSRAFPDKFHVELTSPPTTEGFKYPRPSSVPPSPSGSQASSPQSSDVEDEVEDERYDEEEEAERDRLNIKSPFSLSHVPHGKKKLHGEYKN
hGYS2 enzyme (recombinant hGYS2/GN1 protein), sequence (P46976 whole entry partner): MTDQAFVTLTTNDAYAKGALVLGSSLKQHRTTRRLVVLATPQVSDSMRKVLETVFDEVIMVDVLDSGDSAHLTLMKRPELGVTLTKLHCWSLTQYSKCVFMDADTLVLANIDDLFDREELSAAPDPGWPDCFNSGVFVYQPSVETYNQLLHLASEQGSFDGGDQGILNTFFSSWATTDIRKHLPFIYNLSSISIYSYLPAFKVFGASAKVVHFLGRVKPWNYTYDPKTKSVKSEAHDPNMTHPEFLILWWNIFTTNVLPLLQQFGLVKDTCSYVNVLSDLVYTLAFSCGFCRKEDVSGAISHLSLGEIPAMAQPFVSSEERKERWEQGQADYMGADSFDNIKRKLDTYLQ
hGYS1 enzyme (recombinant hGYS1/GN1 protein), sequence (P13807 whole entry): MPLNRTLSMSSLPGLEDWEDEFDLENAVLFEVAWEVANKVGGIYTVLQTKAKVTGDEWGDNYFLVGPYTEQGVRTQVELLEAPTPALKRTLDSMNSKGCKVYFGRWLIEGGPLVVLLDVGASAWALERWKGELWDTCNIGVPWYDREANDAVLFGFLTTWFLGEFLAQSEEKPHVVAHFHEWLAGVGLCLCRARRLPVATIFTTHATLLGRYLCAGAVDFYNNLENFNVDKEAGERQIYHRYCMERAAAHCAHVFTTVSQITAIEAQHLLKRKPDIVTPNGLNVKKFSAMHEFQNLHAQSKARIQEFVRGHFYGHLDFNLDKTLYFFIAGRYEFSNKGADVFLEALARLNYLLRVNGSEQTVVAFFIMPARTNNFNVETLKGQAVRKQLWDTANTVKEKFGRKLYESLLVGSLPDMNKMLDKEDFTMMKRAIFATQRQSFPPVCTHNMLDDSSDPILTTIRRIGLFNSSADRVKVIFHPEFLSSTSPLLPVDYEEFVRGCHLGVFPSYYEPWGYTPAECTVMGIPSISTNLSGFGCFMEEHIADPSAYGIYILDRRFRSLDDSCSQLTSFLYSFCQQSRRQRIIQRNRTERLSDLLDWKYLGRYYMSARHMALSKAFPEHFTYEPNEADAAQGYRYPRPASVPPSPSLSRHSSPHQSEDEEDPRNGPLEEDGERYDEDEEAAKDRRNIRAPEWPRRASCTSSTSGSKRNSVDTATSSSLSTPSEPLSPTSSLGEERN
hGYS1 enzyme (recombinant hGYS1/GN1 protein), sequence (P46976 whole entry partner): as the sequence (P46976 whole entry partner) above

Consider `CN(C)c1cnnn1CC(=O)N1C[C@H](F)C[C@H]1C(=O)N[C@@H](c1ccccc1)c1ccc(C2CC2)c(F)n1` [Compound 298, (2S,4R)-N-[(S)-(5-cyclopropyl-6-fluoropyridin-2-yl)(phenyl)methyl]-1-{2-[5-(dimethylamino)-1H-1,2,3-triazol-1-yl]acetyl}-4-fluoropyrrolidine-2-carboxamide], for which the pIC50 in assay [1] was 7.92; in assay [2] it was less than 4.00; in assay [3] it was 6.59.

Take `CN(C)c1cn(CC(=O)N2C[C@H](F)C[C@H]2C(=O)N[C@@H](c2ccccc2)c2ccc(C3CC3)c(F)n2)nn1` [Compound 299, (2S,4R)-N-[(S)-(5-cyclopropyl-6-fluoropyridin-2-yl)(phenyl)methyl]-1-{2-[4-(dimethylamino)-1H-1,2,3-triazol-1-yl]acetyl}-4-fluoropyrrolidine-2-carboxamide]: the pIC50 was 7.66 in assay [1], less than 4.00 in assay [2] and 6.38 in assay [3].

For `CN(C)C(=O)NCC(=O)N1C[C@H](F)C[C@H]1C(=O)N[C@@H](c1ccccc1)c1ccc(C2CC2)c(F)n1` [Compound 300, (2S,4R)-N-[(S)-(5-cyclopropyl-6-fluoropyridin-2-yl)(phenyl)methyl]-1-{2-[(dimethylcarbamoyl)amino]acetyl}-4-fluoropyrrolidine-2-carboxamide], the pIC50 in assay [1] is 7.55; in assay [2], less than 4.00; in assay [3], 6.24.

In the case of `CNC(=O)NCC(=O)N1C[C@H](F)C[C@H]1C(=O)N[C@@H](c1ccccc1)c1ccc(C2CC2)c(F)n1` [Compound 301, (2S,4R)-N-[(S)-(5-cyclopropyl-6-fluoropyridin-2-yl)(phenyl)methyl]-4-fluoro-1-{2-[(methylcarbamoyl)amino]acetyl}pyrrolidine-2-carboxamide], the pIC50 in assay [1] is 7.34; in assay [2], less than 4.00; in assay [3] it was 6.05.

For `Cn1nc(CC(=O)N2C[C@H](F)C[C@H]2C(=O)N[C@@H](c2ccccc2)c2ccc(C3CC3)c(F)n2)[nH]c1=O` [Compound 303, (2S,4R)-N-[(S)-(5-cyclopropyl-6-fluoropyridin-2-yl)(phenyl)methyl]-4-fluoro-1-[2-(1-methyl-5-oxo-4,5-dihydro-1H-1,2,4-triazol-3-yl)acetyl]pyrrolidine-2-carboxamide], the results for the pIC50 in assay [1], in assay [2] and in assay [3] were 7.44, less than 4.00 and 5.82, respectively.

Consider `Cn1c(CC(=O)N2C[C@H](F)C[C@H]2C(=O)N[C@@H](c2ccccc2)c2ccc(C3CC3)c(F)n2)n[nH]c1=O` [Compound 304, (2S,4R)-N-[(S)-(5-cyclopropyl-6-fluoropyridin-2-yl)(phenyl)methyl]-4-fluoro-1-[2-(4-methyl-5-oxo-4,5-dihydro-1H-1,2,4-triazol-3-yl)acetyl]pyrrolidine-2-carboxamide], for which the pIC50 in assay [1] was 7.14; in assay [2], less than 4.00; in assay [3] it was 5.63.

As to `Cn1nc(CC(=O)N2C[C@H](F)C[C@H]2C(=O)N[C@@H](c2ccccc2)c2ccc(C3CC3)c(F)n2)oc1=O` [Compound 306, (2S,4R)-N-[(S)-(5-cyclopropyl-6-fluoropyridin-2-yl)(phenyl)methyl]-4-fluoro-1-[2-(4-methyl-5-oxo-4,5-dihydro-1,3,4-oxadiazol-2-yl)acetyl]pyrrolidine-2-carboxamide], the pIC50 in assay [1] is 7.11; in assay [2], less than 4.00; in assay [3] it was 6.09.

Regarding `O=C(N[C@@H](c1ccccc1)c1ccc(C2CC2)c(F)n1)[C@@H]1C[C@@H](F)CN1C(=O)Cc1[nH]nnc1C(F)(F)F` [Compound 307, (2S,4R)-N-[(S)-(5-cyclopropyl-6-fluoropyridin-2-yl)(phenyl)methyl]-4-fluoro-1-{2-[4-(trifluoromethyl)-1H-1,2,3-triazol-5-yl]acetyl}pyrrolidine-2-carboxamide], the pIC50 was 8.00 in assay [1], less than 4.00 in assay [2] and 6.30 in assay [3].

Take `Cc1nccc(NCC(=O)N2C[C@H](F)C[C@H]2C(=O)N[C@@H](c2ccccc2)c2ccc(C3CC3)c(F)n2)n1` [Compound 308, (2S,4R)-N-[(S)-(5-cyclopropyl-6-fluoropyridin-2-yl)(phenyl)methyl]-4-fluoro-1-{2-[(2-methylpyrimidin-4-yl)amino]acetyl}pyrrolidine-2-carboxamide]: the results for the pIC50 in assay [1], in assay [2] and in assay [3] were 7.96, less than 4.00 and 6.48, respectively.

Turning to `O=C(N[C@@H](c1ccccc1)c1ccc(C2CC2)c(F)n1)[C@@H]1C[C@@H](F)CN1C(=O)CNc1ncco1` [Compound 309, (2S,4R)-N-[(S)-(5-cyclopropyl-6-fluoropyridin-2-yl)(phenyl)methyl]-4-fluoro-1-{2-[(1,3-oxazol-2-yl)amino]acetyl}pyrrolidine-2-carboxamide], the results for the pIC50 in assay [1], in assay [2] and in assay [3] were 7.26, less than 4.00 and 6.01, respectively.

For the molecule `C[C@H](NC(=O)N(C)C)C(=O)N1C[C@H](F)C[C@H]1C(=O)N[C@@H](c1ccccc1)c1ccc(C2CC2)c(F)n1` [Compound 310, (2S,4R)-N-[(S)-(5-cyclopropyl-6-fluoropyridin-2-yl)(phenyl)methyl]-1-[(2S)-2-[(dimethylcarbamoyl)amino]propanoyl]-4-fluoropyrrolidine-2-carboxamide], the results for the pIC50 in assay [1], in assay [2] and in assay [3] were 7.12, less than 4.00 and 5.89, respectively.

For the molecule `C[C@@H](NC(=O)N(C)C)C(=O)N1C[C@H](F)C[C@H]1C(=O)N[C@@H](c1ccccc1)c1ccc(C2CC2)c(F)n1` [Compound 311, (2S,4R)-N-[(S)-(5-cyclopropyl-6-fluoropyridin-2-yl)(phenyl)methyl]-1-[(2R)-2-[(dimethylcarbamoyl)amino]propanoyl]-4-fluoropyrrolidine-2-carboxamide], the pIC50 in assay [1] is 6.90; in assay [2], less than 4.00; in assay [3], 5.68.

On to `O=C(N[C@@H](c1ccccc1)c1ccc(C2CC2)c(F)n1)[C@@H]1C[C@@H](F)CN1C(=O)Cc1ncco1` [Compound 312, (2S,4R)-N-[(S)-(5-cyclopropyl-6-fluoropyridin-2-yl)(phenyl)methyl]-4-fluoro-1-[2-(1,3-oxazol-2-yl)acetyl]pyrrolidine-2-carboxamide], for which the results for the pIC50 in assay [1], in assay [2] and in assay [3] were 7.01, less than 4.00 and 6.08, respectively.

As to `Cc1cnc(CC(=O)N2C[C@H](F)C[C@H]2C(=O)N[C@@H](c2ccccc2)c2ccc(C3CC3)c(F)n2)o1` [Compound 313, (2S,4R)-N-[(S)-(5-cyclopropyl-6-fluoropyridin-2-yl)(phenyl)methyl]-4-fluoro-1-[2-(5-methyl-1,3-oxazol-2-yl)acetyl]pyrrolidine-2-carboxamide], the pIC50 in assay [1] was 7.41; in assay [2], less than 4.00; in assay [3], 6.07.

On to `Cc1coc(CC(=O)N2C[C@H](F)C[C@H]2C(=O)N[C@@H](c2ccccc2)c2ccc(C3CC3)c(F)n2)n1` [Compound 314, (2S,4R)-N-[(S)-(5-cyclopropyl-6-fluoropyridin-2-yl)(phenyl)methyl]-4-fluoro-1-[2-(4-methyl-1,3-oxazol-2-yl)acetyl]pyrrolidine-2-carboxamide], for which the pIC50 is 7.20 in assay [1], less than 4.00 in assay [2] and 6.00 in assay [3].

For the molecule `O=C(N[C@@H](c1ccccc1)c1ccc(C2CC2)c(F)n1)[C@@H]1C[C@@H](F)CN1C(=O)CNC(=O)N1CC(F)(F)C1` [Compound 315, (2S,4R)-N-[(S)-(5-cyclopropyl-6-fluoropyridin-2-yl)(phenyl)methyl]-1-{2-[(3,3-difluoroazetidine-1-carbonyl)amino]acetyl}-4-fluoropyrrolidine-2-carboxamide], the pIC50 in assay [1] is 7.64; in assay [2] it was less than 4.00; in assay [3], 6.14.

With `Cc1nn(CC(=O)N2C[C@H](F)C[C@H]2C(=O)N[C@@H](c2ccccc2)c2ccc(C3CC3)c(F)n2)c(=O)o1` [Compound 316, (2S,4R)-N-[(S)-(5-cyclopropyl-6-fluoropyridin-2-yl)(phenyl)methyl]-4-fluoro-1-[2-(5-methyl-2-oxo-2,3-dihydro-1,3,4-oxadiazol-3-yl)acetyl]pyrrolidine-2-carboxamide], the results for the pIC50 in assay [1], in assay [2] and in assay [3] were 7.43, less than 4.00 and 6.03, respectively.

`O=C(N[C@@H](c1ccccc1)c1ccc(C2CC2)c(F)n1)[C@@H]1C[C@@H](F)CN1C(=O)Cn1ncc(N2CCC2)n1` [Compound 317, (2S,4R)-1-{2-[4-(azetidin-1-yl)-2H-1,2,3-triazol-2-yl]acetyl}-N-[(S)-(5-cyclopropyl-6-fluoropyridin-2-yl)(phenyl)methyl]-4-fluoropyrrolidine-2-carboxamide]: the pIC50 in assay [1] was 7.77; in assay [2], less than 4.00; in assay [3] it was 6.41.

Take `O=C(N[C@@H](c1ccccc1)c1ccc(C2CC2)c(F)n1)[C@@H]1C[C@@H](F)CN1C(=O)Cn1ncc(N2CC(F)(F)C2)n1` [Compound 318, (2S,4R)-N-[(S)-(5-cyclopropyl-6-fluoropyridin-2-yl)(phenyl)methyl]-1-{2-[4-(3,3-difluoroazetidin-1-yl)-2H-1,2,3-triazol-2-yl]acetyl}-4-fluoropyrrolidine-2-carboxamide]: the pIC50 was 7.70 in assay [1], less than 4.00 in assay [2] and 6.24 in assay [3].
